From ChEMBL document CHEMBL3885861, “Open TG-GATES”

Organism: Rattus norvegicus
Test: Open TG-GATES - Regimen: Single
Type: toxicity, organism-based, Sprague-Dawley
Design: regimen Single, gender Male, age 6 weeks
Details: in vivo, po, 100 mg/kg, route gavage, dose level Low; for APTT / Bas / Eos / Fbg / Hb / Ht / Lym / MCH / MCHC / MCV / Mono / Neu / PT / Plat / RBC / Ret / WBC: tissue Blood; for KIDNEY_L / KIDNEY_R / KIDNEY_TOTAL: tissue Kidney; for LIVER: tissue Liver; for A/G / ALP / ALT / AST / BUN / CRE / Ca / Cl / DBIL / GLC / IP / K / LDH / Na / PL / RALB / TBIL / TC / TG / TP / gamma-GTP: tissue Plasma

## O=C(OC[C@H]1O[C@@H](OC(=O)c2cc(O)c(O)c(OC(=O)c3cc(O)c(O)c(O)c3)c2)[C@H](OC(=O)c2cc(O)c(O)c(OC(=O)c3cc(O)c(O)c(O)c3)c2)[C@@H](OC(=O)c2cc(O)c(O)c(OC(=O)c3cc(O)c(O)c(O)c3)c2)[C@@H]1OC(=O)c1cc(O)c(O)c(OC(=O)c2cc(O)c(O)c(O)c2)c1)c1cc(O)c(O)c(OC(=O)c2cc(O)c(O)c(O)c2)c1 [TANNIC ACID]
3 h
  TERMINAL_BW: 188.9 g
  APTT: 16.1 s
  Bas: 0%
  Eos: 1.2%
  Fbg: 212.2 mg/dL
  Hb: 13 g/dL
  Ht: 38.5%
  Lym: 82%
  MCH: 22.2 pg
  MCHC: 33.8%
  MCV: 65.6 fL
  Mono: 5.8%
  Neu: 11.2%
  PT: 11.5 s
  Plat: 112.2 x10_4/uL
  RBC: 587 x10_4/ul
  Ret: 10.1%
  WBC: 96.7 x10_2/uL
  KIDNEY_L: 0.9 g
  KIDNEY_R: 0.9 g
  KIDNEY_TOTAL: 1.7 g
  LIVER: 8.6 g
  A/G: 2
  ALP: 882 IU/L
  ALT: 37.8 IU/L
  AST: 70.2 IU/L
  BUN: 15.8 mg/dL
  CRE: 0.5 mg/dL
  Ca: 10.9 mg/dL
  Cl: 105 meq/L
  DBIL: 0.018 mg/dL
  GLC: 198 mg/dL
  IP: 10.2 mg/dL
  K: 4.9 meq/L
  LDH: 75 IU/L
  Na: 139.2 meq/L
  PL: 128.8 mg/dL
  RALB: 3.5 g/dL
  TBIL: 0.5 mg/dL
  TC: 68.6 mg/dL
  TG: 47.6 mg/dL
  TP: 5.3 g/dL
  gamma-GTP: 2.2 IU/L
6 h
  TERMINAL_BW: 185 g
  APTT: 17.1 s
  Bas: 0%
  Eos: 1%
  Fbg: 212.6 mg/dL
  Hb: 12.7 g/dL
  Ht: 37.9%
  Lym: 78.4%
  MCH: 22.6 pg
  MCHC: 33.5%
  MCV: 67.3 fL
  Mono: 6.4%
  Neu: 14.6%
  PT: 12 s
  Plat: 109.6 x10_4/uL
  RBC: 564 x10_4/ul
  Ret: 10.4%
  WBC: 85.8 x10_2/uL
  KIDNEY_L: 0.9 g
  KIDNEY_R: 0.9 g
  KIDNEY_TOTAL: 1.8 g
  LIVER: 8.5 g
  A/G: 2
  ALP: 684.8 IU/L
  ALT: 38.6 IU/L
  AST: 70.4 IU/L
  BUN: 12.6 mg/dL
  CRE: 0.5 mg/dL
  Ca: 10.8 mg/dL
  Cl: 105 meq/L
  DBIL: 0.032 mg/dL
  GLC: 188.2 mg/dL
  IP: 10.4 mg/dL
  K: 4.5 meq/L
  LDH: 102.8 IU/L
  Na: 140.6 meq/L
  PL: 140.2 mg/dL
  RALB: 3.5 g/dL
  TBIL: 0.5 mg/dL
  TC: 86 mg/dL
  TG: 41.4 mg/dL
  TP: 5.3 g/dL
  gamma-GTP: 1.2 IU/L
9 h
  TERMINAL_BW: 180.9 g
  APTT: 16.4 s
  Bas: 0%
  Eos: 1%
  Fbg: 217.4 mg/dL
  Hb: 13.2 g/dL
  Ht: 39.3%
  Lym: 80.4%
  MCH: 22.3 pg
  MCHC: 33.6%
  MCV: 66.5 fL
  Mono: 6.8%
  Neu: 12%
  PT: 12 s
  Plat: 112.9 x10_4/uL
  RBC: 591.6 x10_4/ul
  Ret: 10.1%
  WBC: 105.1 x10_2/uL
  KIDNEY_L: 0.8 g
  KIDNEY_R: 0.8 g
  KIDNEY_TOTAL: 1.6 g
  LIVER: 7.2 g
  A/G: 2
  ALP: 837.8 IU/L
  ALT: 35.2 IU/L
  AST: 64.2 IU/L
  BUN: 12.6 mg/dL
  CRE: 0.4 mg/dL
  Ca: 10.3 mg/dL
  Cl: 106.4 meq/L
  DBIL: 0.072 mg/dL
  GLC: 190.2 mg/dL
  IP: 10.2 mg/dL
  K: 4.9 meq/L
  LDH: 101.4 IU/L
  Na: 137.6 meq/L
  PL: 135.2 mg/dL
  RALB: 3.6 g/dL
  TBIL: 0.5 mg/dL
  TC: 78.8 mg/dL
  TG: 24.6 mg/dL
  TP: 5.4 g/dL
  gamma-GTP: 1.6 IU/L
24 h
  TERMINAL_BW: 201.1 g
  APTT: 16.7 s
  Bas: 0%
  Eos: 1%
  Fbg: 227.8 mg/dL
  Hb: 12.8 g/dL
  Ht: 38.4%
  Lym: 78.8%
  MCH: 21.9 pg
  MCHC: 33.4%
  MCV: 65.6 fL
  Mono: 5.4%
  Neu: 14.8%
  PT: 11.7 s
  Plat: 114.5 x10_4/uL
  RBC: 585.2 x10_4/ul
  Ret: 10.1%
  WBC: 96.6 x10_2/uL
  KIDNEY_L: 0.9 g
  KIDNEY_R: 0.9 g
  KIDNEY_TOTAL: 1.8 g
  LIVER: 9.7 g
  A/G: 2
  ALP: 823.4 IU/L
  ALT: 41.2 IU/L
  AST: 63 IU/L
  BUN: 17.8 mg/dL
  CRE: 0.5 mg/dL
  Ca: 10.8 mg/dL
  Cl: 103.8 meq/L
  DBIL: 0.008 mg/dL
  GLC: 190.6 mg/dL
  IP: 8.7 mg/dL
  K: 4.5 meq/L
  LDH: 98.2 IU/L
  Na: 138 meq/L
  PL: 147.2 mg/dL
  RALB: 3.6 g/dL
  TBIL: 0.3 mg/dL
  TC: 81.4 mg/dL
  TG: 101.6 mg/dL
  TP: 5.5 g/dL
  gamma-GTP: 1 IU/L
